According to US7192940B2, “Ether compounds” (Esperion Therapeutics, Inc., priority 1999, dated 2007):

Legend:
male Sprague-Dawley rats = assay: Serum lipids, apolipoproteins and weight gain in chow-fed male Sprague-Dawley rats after seven days of oral treatment; format: in vivo, rat; settings: 100 mg/kg, 7 days, vs vehicle
Method: Illustrative compounds of the invention were administered daily at a dose of 100 mg/kg to chow fed male Sprague-Dawley rats for seven days in the morning by oral gavage in 1.5% carboxymethylcellulose/0.2% Tween-20 (dosing vehicle). Animals were weighed daily. Animals were allowed free access to rodent chow and water throughout the study. After the seventh dose, animals were sacrificed in the evening and blood serum was assayed for lipoprotein cholesterol profiles, serum triglycerides, total cholesterol VLDL, LDL, and HDL cholesterol, and the ratio of HDL cholesterol to that of VLDL plus LDL cholesterol, apolipoproteins A-I, C-II, C-III, and E by immunoelectrophoresis, and percent weight gain.
The five compounds were tested in two separate experiments. In each experiment, the experimental data were normalized against a control group of rats which received the dosing vehicle alone.

obese female Zucker rats [1] = assay: Experiment A: serum lipids, glucose, non-esterified fatty acids and weight gain in obese female Zucker rats after seven days of oral treatment; format: in vivo, rat; settings: vehicle 6.6%
Method: Dosing vehicle, Compound A (86 mg/kg of body weight) or troglitazone (120 mg/kg of body weight) was administered to eight week old female obese Zucker rats daily for seven days in the morning by oral gavage in 1.5% carboxymethylcellulose/0.2% Tween-20. Troglitazone was obtained commercially. Finely crushed tablets were suspended in vehicle for dosing. Orbital blood samples were obtained following a six-hour fast prior to the initial dose and also following the seventh dose.
Blood serum was assayed for total cholesterol and triglycerides (FIG. 5), lipoprotein cholesterol profiles (FIG. 6), VLDL plus LDL cholesterol combined (also referred to as apo B containing lipoprotein cholesterol or non-HDL cholesterol), HDL cholesterol, and the ratio of HDL cholesterol to that of VLDL plus LDL cholesterol (FIG. 7), serum glucose, and non-esterified fatty acids (FIG. 8), and percent weight gain (FIG. 9). […] In particular, Compound A caused a marked elevation in HDL cholesterol after one week of treatment. Using the serum total cholesterol values (FIG. 5A) and the lipoprotein cholesterol distribution (FIG. 6), the amount of cholesterol associated with non-HDL (i.e., VLDL plus LDL) and HDL were determined (FIG. 7). […] In contrast, troglitazone reduced non-HDL and HDL cholesterol by 67% and 4%, respectively.

obese female Zucker rats [2] = assay: Experiments B, C, D & E: serum lipids, glucose, insulin, body and liver weight in obese female Zucker rats treated for 14 days; format: in vivo, rat; settings: Experiment C
Method: In a number of different experiments, illustrative compounds of the invention and troglitazone were administered daily at various doses to 10-week old chow fed obese female Zucker rats for 14 days in the morning by oral gavage in 1.5% carboxymethylcellulose/0.2% Tween-20 (dosing vehicle). Animals were weighed daily. Animals were allowed free access to rodent chow and water throughout the study. Blood glucose was determined after a 6-hour fast in the afternoon without anesthesia from a tail vein. Serum was also prepared from a blood sample subsequently obtained from the orbital venous plexus (with O2/CO2 anesthesia) prior to and after one week treatment and used lipid and insulin determinations. At two weeks, blood glucose was again determined after a 6-hour fast without anesthesia from a tail vein. Soon thereafter, animals were sacrificed by CO2 inhalation in the evening and cardiac blood serum was collected and assessed for various lipids and insulin. Body weight was determined daily prior to dosing and at the time of euthanasia.

[3] = test system: LDL receptor deficient mice; assay: Lipoprotein cholesterol profile in LDL receptor-deficient mice; format: in vivo; settings: 300 mg/kg/day; one week; chow-fed female mice
Description: The effect of Compound A on LDL levels in a murine model of homozygous familial hypercholesterolemia (Ishibashi et al., 1993, J. Clin. Invest. 92:883–893; Ishibashi et al., 1994, J. Clin. Invest. 93:1885–1893) was studied. LDL receptor-deficient mice have elevated LDL cholesterol relative to wild type mice when fed a chow diet. When fed cholesterol-enriched diets, these mice develop atherosclerosis.

primary rat hepatocytes = assay: Synthesis of non-saponified and saponified lipids (14C-acetate incorporation) in hepatocytes; format: cell-based; settings: 100 μM; 2 hr 14C-acetate labeling; vs no compound control
Method: A male Sprague-Dawley rat was anesthetized by administration of sodium pentobarbitol by intraparitoneal injection at 50 mg/kg. In situ perfusion of the liver was performed as follows. […] To digest the liver, DSC solution (6.7 mM KCl, 143 mM NaCl, 9.2 mM Na HEPES, 5 mM CaCl2—2H2O, 1.7 mM Fructose, 0.029 mM Phenol red, 0.2% BSA, 100 U/ml collagenase Type I, 93 U/ml Hyaluronidase, 160 BAEE/ml trypsin inhibitor, pH 7.5) was perfused through the liver at a flow rate of 30 ml/min for 6 minutes at a temperature of 37° C. After digestion, cells were dispersed in a solution of DMEM− (DMEM containing 2 mM GlutMax-1, 0.2% BSA, 5% FBS, 12 nM insulin, 1.2 μM hydrocortisone) to stop the digestion process. The crude cell suspension was filtered through three layers of stainless steel mesh with pore sizes of 250, 106, and 75 μm respectively. Filtered cells were centrifuged at 50×g for two minutes and the supernatant discarded. The resulting cell pellet was resuspended in DMEM and centrifuged again. This final cell pellet was resuspended in DMEM+HS solution (DMEM containing 2 mM GlutMax-1, 20 nM delta-aminolevulinic acid, 17.4 mM MEM non-essential amino acids, 20% FBS, 12 nM insulin, 1.2 μM hydrocortisone) and plated to form monolayer cultures at a density of 100×10^3 cells/cm^2 on collagen coated culture dishes. […]

`CC(C)(CO)CCCCOCCCCC(C)(C)CO` [Compound A, 6-(6-hydroxy-5,5-dimethylhexyloxy)-2,2-dimethyl-hexan-1-ol] was tested, and the “change in VLDL cholesterol” value (male Sprague-Dawley rats) was “no change”, the “increase in body weight” value (obese female Zucker rats [1]; 86 mg/kg) was 5.4% and the “glucose to insulin ratio” value (obese female Zucker rats [2]; 100 mg/kg) was “reduced”. The blood glucose (obese female Zucker rats [2]; 100 mg/kg, fasted) was “tendency to lower blood glucose”, the “decline of glucose to insulin ratio” value (obese female Zucker rats [2]; 1 and 3 mg/kg, over two weeks (same as control)) was “⅓ to ½” and the weight gain (obese female Zucker rats [2]; 10, 30 and 100 mg/kg, after one and two weeks) was “markedly reduced”. For the same molecule, the “glucose to insulin ratio” value (obese female Zucker rats [2]; 10 and 30 mg/kg) was “sustained at pretreatment levels”, the “sharp rise in serum insulin” value (obese female Zucker rats [2]; higher doses (above 3 mg/kg)) was “largely curtailed or minimized” and the HDL [3] was “HDL elevation”. For the same molecule, the LDL cholesterol [3] was “rapid and significant reduction”.
`CC(C)(CCCOCCCC(C)(C)OP(=O)(OCc1ccccc1)OCc1ccccc1)OP(=O)(OCc1ccccc1)OCc1ccccc1` [Compound E, phosphoric acid dibenzyl ester 4-(4-(bis-benzyloxy-phosphoryloxy)-4-methyl-pentyloxy)-1,1-dimethyl-butyl ester] was tested, and the “rates of saponified fatty acid synthesis” value (primary rat hepatocytes) was “reduced”.
With `CC(C)(O)CCCCOCCCCC(C)(C)O` [Compound F, 6-(5-hydroxy-5-methyl-hexyloxy)-2-methyl-hexan-2-ol] the “rates of saponified fatty acid synthesis” value (primary rat hepatocytes) was “reduced”.
In the case of `Cc1c(C)c2c(c(C)c1O)CCC(C)(COc1ccc(CC3SC(=O)NC3=O)cc1)O2` (stereo not drawn) [troglitazone, reference compound], the weight gain (obese female Zucker rats [1]; 120 mg/kg) is reported as “+11.6%”, the weight gain (obese female Zucker rats [2]; after two weeks at 12, 40 and 120 mg/kg, after one week at 120 mg/kg) is reported as “increased weight gain” and the “percent liver to body weight” value (obese female Zucker rats [2]; after two weeks, doses 12, 40, 120 mg/kg (FIG. 16)) is reported as “reduced at all doses”.
